Measurements from patent US7749316B2, “Water-based inks for ink-jet printing” (Kao Corporation, priority 2006, dated 2010).

Experiments:
[1] = Surface tension of water containing nonionic organic compound; assay type: physicochemical; details: 0.001 g of compound in 100 g of water, 25° C.
Source text: The lower limit of the surface tension is preferably 40 mN/m or more.

[2] = Solubility of nonionic organic compound in water; details: for solubility in 100 g of water: in 100 g of water as measured at 25° C.; for Solubility of nonionic organic compound: saturated solubility in 100 g of water, 25° C.
Method: The solubility is expressed by a saturated solubility of the nonionic organic compound in 100 g of water. The stirring for the measurement was conducted within 1 h.

Compound: CCCCCCCCC(O)CO (centres unmarked) [1,2-decanediol]
- Surface tension of water containing nonionic organic compound [1]: 55 mN/m
- solubility in 100 g of water [2]: 0.055 g

Compound: CCCCCCC(O)CO (centres unmarked) [1,2-octanediol]
- Surface tension of water containing nonionic organic compound [1]: 65 mN/m
- solubility in 100 g of water [2]: 0.20 g

Compound: CCCCC(CC)COCC(O)CO (centres unmarked) [2-ethylhexyl glyceryl ether]
- Surface tension of water containing nonionic organic compound [1]: 62 mN/m
- solubility in 100 g of water [2]: 0.15 g

Compound: CCCCCCCCCCC(O)CO (centres unmarked) [PO-1, 1,2-Dodecanediol]
- Surface tension of water containing nonionic organic compound [1]: 47.1 mN/m
- solubility in 100 g of water [2]: 0.001 g
- Solubility of nonionic organic compound [2]: 0.001 g/100 g

Compound: CCCCCCCCCCCC(=O)OCC(O)CO (centres unmarked) [PO-2, Dodecanoic acid monoglyceride]
- Surface tension of water containing nonionic organic compound [1]: 65 mN/m
- Surface tension of water containing nonionic organic compound ([1]; listed as lauric acid monoglyceride): 63 mN/m
- solubility in 100 g of water [2]: 0.005 g
- Solubility of nonionic organic compound [2]: 0.15 g/100 g

Compound: CC(C)CCCCCCCOCC(O)CO (centres unmarked) [PO-3, Isodecyl monoglyceryl ether]
- Surface tension of water containing nonionic organic compound [1]: 57.8 mN/m
- solubility in 100 g of water [2]: 0.05 g
- Solubility of nonionic organic compound [2]: 0.05 g/100 g

Compound: CCCCCCCCCC(=O)OCC(O)CO (centres unmarked) [decanoic acid monoglyceride]
- Surface tension of water containing nonionic organic compound [1]: 65 mN/m
